Assay results from ChEMBL document CHEMBL4619763 (J Nat Prod, 2020).
Calls of active or inactive are those of the source. No cut-off for these calls is given here.

How the values were obtained:
[1] = test system: Rattus norvegicus; experiment: Diuretic activity in normotensive Wistar rat assessed as urinary calcium excretion at 0.1 mg/kg, po administered via gavage after 8 hrs in presence of indomethacin (reference value: 5.93 to 6.87 mg/dl); format: functional
[2] = test system: Rattus norvegicus; experiment: Diuretic activity in spontaneous hypertensive Wistar rat assessed as increase in urinary chloride excretion at 0.1 mg/kg, po administered via gavage for 7 days; format: functional, organism-based
[3] = test system: Rattus norvegicus; experiment: Diuretic activity in normotensive Wistar rat assessed as urinary potassium excretion at 0.1 mg/kg, po administered via gavage after 8 hrs in presence of indomethacin (reference value: 22.39 to 24.21 mmol/L); format: ADME, organism-based; details: in vivo
[4] = test system: Rattus norvegicus; experiment: Diuretic activity in normotensive Wistar rat assessed as urinary chloride excretion at 0.1 mg/kg, po administered via gavage after 8 hrs in presence of hydrochlorothiazide (reference value: 135.10 to 143.70 mmol/L); format: functional
[5] = test system: Rattus norvegicus; experiment: Diuretic activity in normotensive Wistar rat assessed as urinary sodium excretion at 0.1 mg/kg, po administered via gavage after 8 hrs in presence of hydrochlorothiazide (reference value: 61.82 to 80.81 mmol/L); format: functional
[6] = test system: Rattus norvegicus; experiment: Diuretic activity in normotensive Wistar rat assessed as urinary calcium excretion at 1 mg/kg, ip […] after 8 hrs (reference value: 5.28 +/- 0.09 mg/dl); format: functional
[7] = Toxicity in spontaneous hypertensive Wistar rat assessed as changes in plasma AST level at 0.1 mg/kg, po administered for 7 days; format: organism-based; details: in vivo, 168 h
[8] = test system: Rattus norvegicus; experiment: Diuretic activity in normotensive Wistar rat assessed as urine pH at 0.01 mg/kg, ip after 8 hrs (reference value: 6.05 +/- 0.22); format: functional
[9] = test system: Rattus norvegicus; experiment: Diuretic activity in normotensive Wistar rat assessed as increase in urine volume excretion at 0.1 to 1 mg/kg, po administered via gavage after 1 hr; format: functional, organism-based
[10] = test system: Rattus norvegicus; experiment: Renal protective activity in spontaneous hypertensive Wistar rat assessed as reduction in hypertension-induced Bowman's capsule thickening at 0.1 mg/kg, po administered via gavage for 7 days by hematoxylin and eosin staining based microscopic analysis; format: functional, organism-based
[11] = test system: Rattus norvegicus; experiment: Diuretic activity in normotensive Wistar rat assessed as urine conductivity at 0.1 mg/kg, po administered via gavage after 8 hrs (reference value: 19.54 +/- 0.98 mS/cm); format: functional
[12] = test system: Rattus norvegicus; experiment: Renal protective activity in spontaneous hypertensive Wistar rat assessed as reduction in hypertension-induced glomerular size at 0.1 mg/kg, po administered via gavage for 7 days by hematoxylin and eosin staining based microscopic analysis; format: functional, organism-based
[13] = test system: Rattus norvegicus; experiment: Diuretic activity in normotensive Wistar rat assessed as urine pH at 0.1 mg/kg, po administered via gavage after 8 hrs in presence of hydrochlorothiazide (reference value: 6.14 to 6.21); format: functional
[14] = Toxicity in spontaneous hypertensive Wistar rat assessed as changes in urinary creatinine at 0.1 mg/kg, po administered for 7 days; format: organism-based; details: in vivo, 168 h
[15] = Anti-urolithic activity in synthetic urine assessed as decrease in absorbance at 0.1 mg/mL after 60 mins relative to control; format: functional; parameters: scale not given: the % may be the effect or the level left
[16] = test system: Rattus norvegicus; experiment: Diuretic activity in normotensive Wistar rat assessed as urinary potassium excretion at 0.1 mg/kg, po administered via gavage after 8 hrs in presence of L-NAME (reference value: 22.39 to 24.21 mmol/L); format: ADME, organism-based; details: in vivo
[17] = test system: Rattus norvegicus; experiment: Diuretic activity in normotensive Wistar rat assessed as urine conductivity at 0.01 mg/kg, ip after 8 hrs (reference value: 24.87 +/- 0.54 mS/cm); format: functional
[18] = test system: Rattus norvegicus; experiment: Diuretic activity in normotensive Wistar rat assessed as urinary sodium excretion at 0.1 mg/kg, po administered via gavage after 8 hrs in presence of indomethacin (reference value: 61.82 to 80.81 mmol/L); format: functional
[19] = Toxicity in normotensive Wistar rat assessed as changes in plasma sodium level at 0.1 mg/kg, po administered for 7 days; format: organism-based; details: in vivo, 168 h
[20] = test system: Rattus norvegicus; experiment: Diuretic activity in normotensive Wistar rat assessed as urinary chloride excretion at 0.1 mg/kg, po administered via gavage after 8 hrs in presence of furosemide (reference value: 135.10 to 143.70 mmol/L); format: functional
[21] = test system: Rattus norvegicus; experiment: Diuretic activity in normotensive Wistar rat assessed as urinary potassium excretion at 0.1 mg/kg, po administered via gavage after 8 hrs in presence of atropine (reference value: 22.39 to 24.21 mmol/L); format: ADME, organism-based; details: in vivo
[22] = test system: Rattus norvegicus; experiment: Diuretic activity in normotensive Wistar rat assessed as urinary chloride excretion at 0.1 mg/kg, po administered via gavage after 8 hrs in presence of indomethacin (reference value: 135.10 to 143.70 mmol/L); format: functional
[23] = test system: Rattus norvegicus; experiment: Diuretic activity in normotensive Wistar rat assessed as urine pH at 0.1 mg/kg, po administered via gavage after 8 hrs in presence of L-NAME (reference value: 6.14 to 6.21); format: functional
[24] = Toxicity in spontaneous hypertensive Wistar rat assessed as changes in plasma uric acid level at 0.1 mg/kg, po administered for 7 days; format: organism-based; details: in vivo, 168 h
[25] = test system: Rattus norvegicus; experiment: Diuretic activity in normotensive Wistar rat assessed as urine pH at 0.1 mg/kg, po administered via gavage after 8 hrs in presence of furosemide (reference value: 6.14 to 6.21); format: functional
[26] = Anti-urolithic activity in synthetic urine assessed as decrease in absorbance at 0.1 mg/mL after 30 mins relative to control; format: functional; parameters: scale not given: the % may be the effect or the level left
[27] = test system: Rattus norvegicus; experiment: Diuretic activity in normotensive Wistar rat assessed as urinary potassium excretion at 0.1 mg/kg, po administered via gavage after 8 hrs in presence of hydrochlorothiazide (reference value: 22.39 to 24.21 mmol/L); format: ADME, organism-based; details: in vivo
[28] = test system: Rattus norvegicus; experiment: Diuretic activity in normotensive Wistar rat assessed as urinary calcium excretion at 0.1 mg/kg, po administered via gavage after 8 hrs in presence of amiloride (reference value: 5.93 to 6.87 mg/dl); format: functional
[29] = Toxicity in normotensive Wistar rat assessed as changes in plasma AST level at 0.1 mg/kg, po administered for 7 days; format: organism-based; details: in vivo, 168 h
[30] = test system: Rattus norvegicus; experiment: Diuretic activity in normotensive Wistar rat assessed as urine conductivity at 0.1 mg/kg, po administered via gavage after 8 hrs in presence of hydrochlorothiazide (reference value: 19.54 +/- 0.98 mS/cm); format: functional
[31] = test system: Rattus norvegicus; experiment: Diuretic activity in normotensive Wistar rat assessed as urine pH at 0.01 mg/kg, po administered via gavage after 8 hrs (reference value: 6.14 to 6.21); format: functional
[32] = test system: Rattus norvegicus; experiment: Diuretic activity in normotensive Wistar rat assessed as urinary potassium excretion at 0.1 mg/kg, po administered via gavage after 8 hrs (reference value: 22.39 to 24.21 mmol/L); format: ADME, organism-based; details: in vivo
[33] = test system: Rattus norvegicus; experiment: Diuretic activity in normotensive Wistar rat assessed as urinary calcium excretion at 1 mg/kg, po administered via gavage after 8 hrs (reference value: 5.93 to 6.87 mg/dl); format: functional
[34] = test system: Rattus norvegicus; experiment: Diuretic activity in normotensive Wistar rat assessed as decrease in urinary calcium excretion at 0.1 mg/kg, po administered via gavage for 7 days; format: functional, organism-based
[35] = test system: Rattus norvegicus; experiment: Diuretic activity in normotensive Wistar rat assessed as urinary sodium excretion at 0.01 mg/kg, po administered via gavage after 8 hrs (reference value: 61.82 to 80.81 mmol/L); format: functional

C[C@@H]1O[C@@H](Oc2c(-c3ccc(O)cc3)oc3cc(O)cc(O)c3c2=O)[C@H](O)[C@H](O)[C@H]1O [AFZELIN]
Activity [1]: 4.82 mg/dL | Activity [2]: Active | Activity [3]: 17.87 mmol/L | Activity [4]: 333.4 mmol/L | Activity [5]: 113.3 mmol/L | Activity [6]: 5.46 mg/dL | Activity [7]: Non-Toxic | pH [8]: 5.82 | Activity [9]: Active | Activity [10]: Active | Activity [11]: 17.05 - 18.31 mS/cm | Activity [12]: Active | pH [13]: 6.42 | Activity [14]: Non-Toxic | Activity [15]: 27.21% | Activity [16]: 14.84 mmol/L | Activity [17]: 26.4 mS/cm | Activity [18]: 81.55 mmol/L | Activity [19]: Non-Toxic | Activity [20]: 154.7 mmol/L | Activity [21]: 16.83 mmol/L | Activity [22]: 284.5 mmol/L | pH [23]: 6.43 | Activity [24]: Non-Toxic | pH [25]: 6.25 | Activity [26]: 21.54% | Activity [27]: 33.28 mmol/L | Activity [28]: 4.74 mg/dL | Activity [29]: Non-Toxic | Activity [30]: 19.83 mS/cm | pH [31]: 5.73 | Activity [32]: 24.2 to 24.7 mmol/L | Activity [33]: 6.08 mg/dL | Activity [34]: Active | Activity [35]: 61.35 mmol/L
